According to patent US20220354957A1, “PEPTIDES TARGETING MACROPHAGES, AND CONJUGATES, COMPOSITIONS, AND USES THEREOF” (Twinpig Biolab, Inc., priority 2021, published 2022):
Where no end group is shown, it is not given here.

Experiments:
[1] = system: THP-1-derived M2 macrophages; assay: Cytotoxicity assay (CCK-8 cell viability); type: cell-based, human; settings: 0.05-20 μM, 24 h
Method: (§1) THP-1 cells were differentiated into macrophages by 24 h incubation with 100 nM PMA and polarized in M2 macrophages by incubation with 20 ng/ml of IL-4 and 20 ng/ml of IL-13 for 72 h. Polarized cells were treated with increasing concentrations of TAMpep and fragments of TAMpep (0.05-20 μM) for 24 h. Cell viability was analyzed using the CCK-8 assay: CCK-8 reagent (Enzo Life Sciences) was added to each well; incubation was continued for 2 hours, and absorbance was measured at 450 nm with a microplate reader (Molecular Devices).

M2 macrophages = assay: Affinity by immunofluorescence microscopy; type: cell-based, human
[2] = system: THP-1-derived M2 macrophages; assay: Affinity test of FITC-conjugated peptides by flow cytometry; type: cell-based, human
Method: THP-1 monocytes were differentiated into macrophages by 24 h incubation with 100 nM phorbol 12-myristate 13-acetate (PMA, Sigma) followed by 24 h incubation in RPMI medium (Invitrogen). Macrophages were polarized in M1 macrophages (M1) by incubation with 20 ng/ml of IFN-γ (Prospec) and 100 ng/ml of LPS (Sigma). Macrophage M2 polarization(M2) was obtained by incubation with 20 ng/ml of interleukin (IL) 4 (Prospec) and 20 ng/ml of interleukin 13 (Prospec). M2-like tumor-associated macrophages were polarized by incubation with 20% conditioned medium of PC3 cells.
THP-1 cells were differentiated into macrophages by a 24 h incubation with 100 nM PMA and polarized in M2 macrophages by incubation with 20 ng/ml of IL-4 and 20 ng/ml of IL-13 for 72 h. Polarized cells were treated with 50 nM TAMpep and fragments of TAMpep or Mpep and alanine library of Mpep conjugated with FITC for 1 h. To test change of macrophage population in melanoma tissue, the single cells were isolated from tumor tissue through a 40 μm nylon mesh strainer after dissociation by DNase I (1 U/mL) and collagenase D (1 mg/ml). Cells were detected on BD FACSCalibur and BD FACSCantoII instruments and analyzed by FlowJo software.

TRAMP-C2 cells = assay: Mouse model of prostate cancer (subcutaneous TRAMP-C2); type: in vivo; settings: TRAMP-C2 prostate cancer model
Excerpt: (§2) BALB/c and C57BL/6 (B6) wild-type mice were purchased from DBL. For the subcutaneous tumor model of melanoma and prostate cancer, CT26 (3×10^5 cells/mouse), B16F10 (1×10^6 cells/mouse) and TRAMP-C2 cells (1×10^6 cells/mouse) were mixed with Matrigel matrix (Corning) and inoculated subcutaneously into the right flank of the mice, and 4T1 (1×10^5 cells/mouse) cells mixed with Matrigel matrix and inoculated into a 4th mammary fat pad of the mice. TAMpepK, and MpepK peptides (200 nmol/kg) were injected intraperitoneally every 3 days, beginning at day 7 after tumor inoculation, and tumor volume was measured by electronic caliper. All tumor tissues were harvested after the end of the study and tumor weight was measured by an electronic balance.
Cells were harvested and lysed in PRO-PREP protein extraction solution (iNtRON, Bio Inc, Sungnam, Korea). Protein concentrations were measured with a Bradford Protein Assay Reagent kit (Bio-Rad, Richmond, CA, USA). Proteins were fractionated by 10% SDS-polyacrylamide gels electrophoresis (PAGE), and transferred onto polyvinylidene difluoride (PVDF) membranes. These were incubated with anti-arginase 1, anti-CD206, anti-caspase 3, anti-E-cadherin, anti-fibronectin, anti-PCNA, anti-TGF-β, anti-MMP9, and anti-β-actin Ab as primary antibodies. Goat anti-rabbit horseradish peroxidase-conjugated IgG or goat anti-mouse horseradish peroxidase-conjugated IgG (Abcam, Cambridge, Mass., USA) served as secondary antibodies. Protein bands were detected with a chemiluminescence reagent kit (SurModics).

mouse RBC = assay: Hemolytic activity assay; type: cell-based; settings: 0.1-50 μM, 37° C., 1 h, read-out: hemolysis IC50
Method: Mouse blood samples were collected in tubes containing heparin as an anticoagulant and stored at 4 ° C. before use. Whole blood sample were centrifuged at 1,500×g for 5 min and the resulting plasma fraction was removed from the samples. The pellets were washed with an equal volume of saline, mixing by inversion. The centrifuging and washing steps were repeated 5 times. Red blood cells were counted by a hemocytometer and adjusted to […]. Red blood cells were then incubated at 37° C. for 1 h in 1% Triton X-100 (positive control), in PBS (blank), or with increasing concentrations of TAMpep and Mpep (0.1-50 μM) were evaluated. The samples were then centrifuged at 10,000 g for 5 min, the supernatant was separated from the pellet, and its absorbance measured at 570 nm. The relative optical density compared to that of the suspension treated with 1% Triton X-100 was defined as the percentage of hemolysis.

[3] = Cytotoxicity assay (CCK-8 cell viability); type: cell-based, human; settings: THP-1-derived M2 macrophages, CCK-8
Method: as §1

[4] = Cytotoxicity in human melanoma cells; type: cell-based; settings: Sk-Mel-28 cells
[5] = system: murine melanoma cells (B16F10 cell line); assay: Mouse model of melanoma (subcutaneous B16F10); type: in vivo; settings: B16F10 melanoma model, vs PBS group
Excerpt: as §2

CC[C@H](C)[C@H](NC(=O)[C@H](CC(C)C)NC(=O)[C@H](C)NC(=O)[C@@H]1CCCN1C(=O)[C@H](CC(C)C)NC(=O)CNC(=O)[C@@H](NC(=O)[C@@H](NC(=O)[C@H](CC(C)C)NC(=O)[C@@H](NC(C)=O)C(C)C)[C@@H](C)O)[C@@H](C)O)C(=O)N[C@@H](CO)C(=O)N[C@@H](Cc1c[nH]c2ccccc12)C(=O)N[C@H](C(=O)N[C@@H](CCCCN)C(=O)N[C@@H](CCCNC(=N)N)C(=O)N[C@@H](CCCCN)C(=O)N[C@@H](CCCNC(=N)N)C(=O)N[C@@H](CCC(N)=O)C(=O)N[C@@H](CCC(N)=O)C(=O)O)[C@@H](C)CC [Mpep, Val-Leu-Thr-Thr-Gly-Leu-Pro-Ala-Leu-Ile-Ser-Trp-Ile-Lys-Arg-Lys-Arg-Gln-Gln]
cytotoxic effect in M2 macrophages (in words) [1]: low cytotoxicity

CC[C@H](C)[C@H](NC(=O)CN)C(=O)NCC(=O)N[C@@H](C)C(=O)N[C@H](C(=O)N[C@@H](CC(C)C)C(=O)N[C@@H](CCCCN)C(=O)N[C@H](C(=O)N[C@@H](CC(C)C)C(=O)N[C@H](C(=O)N[C@H](C(=O)NCC(=O)N[C@@H](CC(C)C)C(=O)N1CCC[C@H]1C(=O)N[C@@H](C)C(=O)N[C@@H](CC(C)C)C(=O)N[C@H](C(=O)N[C@@H](CO)C(=O)N[C@@H](Cc1c[nH]c2ccccc12)C(=O)N[C@H](C(=O)N[C@@H](CCCCN)C(=O)N[C@@H](CCCNC(=N)N)C(=O)N[C@@H](CCCCN)C(=O)N[C@@H](CCCNC(=N)N)C(=O)N[C@@H](CCC(N)=O)C(=O)N[C@@H](CCC(N)=O)C(N)=O)[C@@H](C)CC)[C@@H](C)CC)[C@@H](C)O)[C@@H](C)O)C(C)C)C(C)C [TAMpep, reference compound]
affinity in M2 macrophages by immunofluorescence microscopy (M2 macrophages): high affinity
affinity in M2 macrophages compared to M0 and M1 macrophages ([2]; FITC-conjugated peptides, THP-1-derived M0, M1, M2, FACS): significantly more high affinity
body weight of mice (TRAMP-C2 cells): did not significantly change

CC[C@H](C)[C@H](NC(=O)CNC(C)=O)C(=O)NCC(=O)N[C@@H](C)C(=O)N[C@H](C(=O)N[C@@H](CC(C)C)C(=O)N[C@@H](CCCCN)C(=O)N[C@H](C(=O)N[C@@H](CC(C)C)C(=O)N[C@H](C(=O)N[C@H](C(=O)NCC(=O)N[C@@H](CC(C)C)C(=O)N1CCC[C@H]1C(=O)N[C@@H](C)C(=O)N[C@@H](CC(C)C)C(=O)N[C@H](C(=O)N[C@@H](CO)C(=O)N[C@@H](Cc1c[nH]c2ccccc12)C(=O)N[C@H](C(=O)N[C@@H](CCCCN)C(=O)N[C@@H](CCCNC(=N)N)C(=O)N[C@@H](CCCCN)C(=O)N[C@@H](CCCNC(=N)N)C(=O)N[C@@H](CCC(N)=O)C(=O)N[C@@H](CCC(N)=O)C(=O)NCC(=O)NCC(=O)NCC(=O)NCC(=O)N[C@@H](CO)C(=O)N[C@H](CCCCN)C(=O)N[C@H](CC(C)C)C(=O)N[C@H](C)C(=O)N[C@H](CCCCN)C(=O)N[C@H](CC(C)C)C(=O)N[C@H](C)C(=O)N[C@H](CCCCN)C(=O)N[C@H](CCCCN)C(=O)N[C@H](CC(C)C)C(=O)N[C@H](C)C(=O)N[C@H](CCCCN)C(=O)N[C@H](CC(C)C)C(=O)N[C@H](C)C(=O)N[C@H](CCCCN)C(=O)O)[C@@H](C)CC)[C@@H](C)CC)[C@@H](C)O)[C@@H](C)O)C(C)C)C(C)C [TAMpepK]
IC50 (mouse RBC): 1120 nM
IC50 [3]: 1060 nM
IC50 [4]: 3580 nM
body weight of mice [5]: not significantly changed
body weight of mice (TRAMP-C2 cells): did not significantly change

CC(=O)N[C@H](CCCCN)C(=O)N[C@H](CC(C)C)C(=O)N[C@H](C)C(=O)N[C@H](CCCCN)C(=O)N[C@H](CC(C)C)C(=O)N[C@H](C)C(=O)N[C@H](CCCCN)C(=O)N[C@H](CCCCN)C(=O)N[C@H](CC(C)C)C(=O)N[C@H](C)C(=O)N[C@H](CCCCN)C(=O)N[C@H](CC(C)C)C(=O)N[C@H](C)C(=O)N[C@H](CCCCN)C(=O)O [dKLA, d-Lys-d-Leu-d-Ala-d-Lys-d-Leu-d-Ala-d-Lys-d-Lys-d-Leu-d-Ala-d-Lys-d-Leu-d-Ala-d-Lys, reference compound]
body weight of mice (TRAMP-C2 cells): did not significantly change

A18: the eleventh S (serine) of Mpep is substituted with alanine (SEQ ID NO:21) (Ac-VLTTGLPALIAWIKRKRQQ)
affinity of alanine-substituted Mpep peptides in M2 macrophages ([2]; alanine-substituted library of Mpep, FITC-conjugated, FACS): increased affinity
